Assay results: PMC12722636, “Structural Pharmacology of Bufotenine Derivatives in Activating the 5-HT1A Receptor for Therapeutic Potential in Depression and Anxiety” (Research, 2025)
Where two headings read alike, the source gives them in different places.

Key:
[1] = test system: PCPA-induced mouse model of depression and anxiety; test: Sucrose preference test (SPT) in PCPA model; assay type: in vivo, C57BL/6 male mice; conditions: for Sucrose preference: PCPA model, 5-OH-DMT 15 mg/kg i.p. or WAY100635 1 mg/kg i.p. for 3 d, versus control or model group, Fig. 6H
Description: (§1) Mice in the control group were fed with saline solution containing 0.1% DMSO (vehicle) for 3 d. Mice that were injected subcutaneously with 150 mg/kg PCPA twice daily for 3 d developed symptoms of depression. […] For WAY100635 treatment, mice were injected intraperitoneally with 1 mg/kg WAY100635 for 3 d. […] Then, mice were tested for all behaviors.

[2] = test system: PCPA-induced mouse model of depression and anxiety; test: Tail suspension test (TST) in PCPA model; assay type: in vivo, C57BL/6 male mice; conditions: for Immobility time in TST: PCPA model, 5-OH-DMT 15 mg/kg i.p. or WAY100635 1 mg/kg i.p. for 3 d, versus control or model group, Fig. 6F
Description: as §1

[3] = test system: PCPA-induced mouse model of depression and anxiety; test: Open-field test (OFT) in PCPA model; assay type: in vivo, C57BL/6 male mice; conditions: for OFT time spent in center / OFT total distance traveled: PCPA model, 5-OH-DMT 15 mg/kg i.p. or WAY100635 1 mg/kg i.p. for 3 d, versus control or PCPA mice, Fig. 6I
Description: as §1

[4] = test system: PCPA-induced mouse model of depression and anxiety; test: Forced swimming test (FST) in PCPA model; assay type: in vivo, C57BL/6 male mice; conditions: for Immobility time in FST: PCPA model, 5-OH-DMT 15 mg/kg i.p. or WAY100635 1 mg/kg i.p. for 3 d, versus control or model group, Fig. 6G
Description: as §1

[5] = target: T1, 5-HT2A receptor (Homo sapiens, UniProt P28223); test: cell-based; assay type: cell-based
T1 construct: expressed in transfected cells; host or cells: HEK 293T
Description: We evaluated the impact of bufotenine derivatives on 6 serotonin receptor subtypes associated with depression (5-HT1A, 5-HT1B, 5-HT1D, 5-HT2A, 5-HT2C, and 5-HT7) using the GloSensor cAMP assay to measure Gi and Gs activation and the IP-One assay to assess Gq activation, thereby detecting signaling activity at each receptor. […] We conducted a thorough pharmacological analysis of bufotenine derivatives to evaluate their hallucinogenic potential via 5-HT2AR activation, comparing their receptor binding profiles and functional activities at 5-HT1AR and 5-HT2AR subtypes.
The downstream Gαq signaling of 5-HT2A was evaluated using the IP-One HTRF assay (Cisbio). HEK 293T cells were cultured in DMEM with 10% FBS and 1% penicillin–streptomycin at 37 °C, 5% CO2. After 24 h of transfection, cells were resuspended in stimulation buffer (8 × 10^5 cells/ml) and plated at 7 μl/well into 384-well plates. Ligands diluted in buffer (7 μl) were added and incubated for 1 h at 37 °C. IP-One-d2 and anti-IP-One cryptate (3 μl each) were then added, followed by 30-min incubation at room temperature. HTRF signals were measured using an EnVision reader (PerkinElmer).
(§3) An evaluation of the concentration–response curves was carried out using a logistic equation with 3 parameters. Calculations of pEC50 values were performed with the use of the sigmoid 3-parameter equation. In order to assess the significance, a 1-way or 2-way analysis of variance was conducted, followed by Bonferroni’s or Dunnett’s post hoc test. Differences were considered significant when P < 0.05 and are shown as *P < 0.05, **P < 0.01, or ***P < 0.001.

[6] = test system: CUMS model mice; test: Open-field test (OFT) in CUMS depression model; conditions: 15 mg/kg i.p. for 1 week; for OFT time spent in the center / OFT total distance traveled: CUMS mice, regardless of 5-HT1AR knockdown, Fig. 6D
[7] = test system: CUMS model mice; test: Sucrose preference test (SPT) in CUMS depression model; conditions: 15 mg/kg i.p. for 1 week, versus CUMS model, Fig. 6C
[8] = target: T2, 5-HT1A receptor (Homo sapiens, UniProt P08908); test: GloSensor cAMP assay, 5-HT1A Gi signaling in HEK 293T cells; assay type: cell-based
T2 sequence (P08908 1-422): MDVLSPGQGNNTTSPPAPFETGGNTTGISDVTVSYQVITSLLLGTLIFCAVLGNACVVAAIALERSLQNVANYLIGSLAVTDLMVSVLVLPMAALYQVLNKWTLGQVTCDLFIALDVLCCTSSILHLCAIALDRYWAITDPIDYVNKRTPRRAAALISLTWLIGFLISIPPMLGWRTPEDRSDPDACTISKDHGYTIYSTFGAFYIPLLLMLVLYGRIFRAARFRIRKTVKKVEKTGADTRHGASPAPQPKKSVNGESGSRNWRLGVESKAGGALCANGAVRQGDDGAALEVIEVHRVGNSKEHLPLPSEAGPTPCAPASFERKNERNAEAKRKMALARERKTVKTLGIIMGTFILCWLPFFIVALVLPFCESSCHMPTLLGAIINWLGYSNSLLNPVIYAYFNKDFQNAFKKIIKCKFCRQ
Description: (§4) The downstream Gαi signaling of 5-HT1A was assessed using the GloSensor cAMP assay (Promega). HEK 293T cells were cultured in DMEM with 10% FBS and 1% penicillin–streptomycin at 37 °C and 5% CO2. Cells were transfected with 5-HT1A constructs and the GloSensor-22F biosensor at a 3:2 ratio. After 24 h, cells were resuspended in CO2-independent medium with 2% GloSensor reagent and plated at 3.5 × 10^5 cells/ml (20 μl/well) into 384-well plates. After 1-h incubation, forskolin (1 μM) and test ligands were added, and luminescence was immediately recorded using an EnVision plate reader (PerkinElmer).
as §3

[9] = test system: 5-HT1A A365^6.55F mutant; test: GloSensor cAMP assay on 5-HT1A mutant A365F; conditions: mutant versus WT 5-HT1A, fold less potent, Fig. S7E
Description: In order to examine the underlying mechanism of ligand selectivity, we introduced a mutation at position A365^6.55, replacing it with phenylalanine.
as §4
WT or mutant were transfected into HEK293T cells and Glosenser cAMP assay were measured to reflect the activity of 5-HT1AR. The response data was normalized by WT receptor within each individual experiment, with the basal activity for WT as 0, while the fitted Emax of WT as 100. Three independent experiments were conducted (n=3).

[10] = test system: mice; test: Horizontal locomotor activity (HLA), side effect detection; assay type: in vivo, C57BL/6 male mice; conditions: 25 mg/kg i.p., recorded 30 min, in contrast to 5-MeO-DMT, Fig. S10
Description: (§2) Then, HTR and HLA were immediately tested. Mice were placed into the observation arena (25 × 25 × 40 cm) under low-light conditions. The number of head-twitch events and total distance were respectively recorded for 10 and 30 min. For the HTR test, the number of head twitches was examined by 2 observers blinded to the treatments via video recordings. For the HLA test, the total distance traveled was measured by using tracking software to process video recordings.

[11] = test system: mice; test: Head-twitch response (HTR), side effect detection; assay type: in vivo, C57BL/6 male mice; conditions: 25 mg/kg i.p., recorded 10 min, in contrast to 5-MeO-DMT, Fig. S10
Description: as §2

[12] = PCPA + 5-OH-DMT 15 mg/kg + WAY100635 1 mg/kg i.p. versus PCPA + 5-OH-DMT

T1 sequence (P28223 whole entry): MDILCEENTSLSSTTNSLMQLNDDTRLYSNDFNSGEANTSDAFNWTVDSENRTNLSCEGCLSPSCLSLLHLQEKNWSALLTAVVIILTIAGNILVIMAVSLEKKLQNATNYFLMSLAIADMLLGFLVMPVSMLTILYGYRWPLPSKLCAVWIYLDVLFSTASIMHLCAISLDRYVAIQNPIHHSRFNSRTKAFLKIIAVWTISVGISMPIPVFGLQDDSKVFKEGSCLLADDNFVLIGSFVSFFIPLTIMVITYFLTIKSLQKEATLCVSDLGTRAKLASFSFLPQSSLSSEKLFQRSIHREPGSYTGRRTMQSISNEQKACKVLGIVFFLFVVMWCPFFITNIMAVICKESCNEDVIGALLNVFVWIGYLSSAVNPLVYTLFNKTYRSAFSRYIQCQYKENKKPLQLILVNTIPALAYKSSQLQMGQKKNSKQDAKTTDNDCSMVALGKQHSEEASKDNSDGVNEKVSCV

## COc1ccccc1N1CCN(CCN(C(=O)C2CCCCC2)c2ccccn2)CC1 [WAY100635, reference compound]
[1]
  Sucrose preference: reduced sucrose preference
[2]
  Immobility time in TST: significantly increased immobility time
[3]
  OFT time spent in center: less time spent in center
  OFT total distance traveled: less total distance traveled
[4]
  Immobility time in FST: significantly increased immobility time

## COc1ccc2[nH]cc(CCN(C)C)c2c1 [Compound 5-MeO-DMT, 5-methoxy-N,N-dimethyltryptamine]
[5]; ratio of EC50 values, times more potent
  Potency at 5-HT2AR compared to 5-OH-DMT: 100 times
[6]
  OFT time spent in the center: increased
  OFT total distance traveled: increased
[6]; CUMS, sh-5-HT1AR versus NC mice
  OFT total distance after 5-HT1AR was knocked down: reduced total distance
[7]
  Sucrose preference: significantly counteract the reduction in sucrose preference induced by CUMS

## C[N+](C)(C)CCc1c[nH]c2ccc([O-])cc12 [Compound 5-OH-TMT, 5-hydroxy-N,N,N-dimethyltryptamine]
[5]
  EC50: 10 µM
[8]; GloSensor cAMP, Gi activation, HEK 293T, Fig. 1A, read-out: EC50 at 5-HT1AR
  EC50: 10 µM

## CN(C)CCc1c[nH]c2ccc(O)cc12 [Compound 5-OH-DMT, 5-hydroxy-N,N-dimethyltryptamine]
[1]; [12]
  Sucrose preference, with addition of WAY100635: this increase was reversed by WAY100635
[1]
  Sucrose preference: increased sucrose preference
[5]; 5-HT2A relative to 5-HT1A, times lower, Fig. 1A
  Drop in potency with 5-HT2A: roughly 10 times
[9]
  Loss in potency at A365^6.55F mutant: around 1,000 fold
[10]
  Horizontal locomotor activity (HLA), total distance: somewhat reduced
[8]
  EC50: 0.1 µM
[2]; [12]
  Immobility time in TST, with addition of WAY100635: prolonged the immobility time
[2]
  Immobility time in TST: shorter immobility durations
[6]
  OFT time spent in the center: increased
  OFT total distance traveled: increased
[3]; [12]
  OFT time spent in the center, with administration of WAY100635: significantly recovered these changes
  OFT total distance, with administration of WAY100635: significantly recovered these changes
[3]
  OFT time spent in center: dramatically increased
  OFT total distance traveled: dramatically increased
[7]
  Sucrose preference: significantly counteract the reduction in sucrose preference induced by CUMS
[4]; [12]
  Immobility time in FST, with addition of WAY100635: prolonged the immobility time
[4]
  Immobility time in FST: shorter immobility durations
[11]
  Head-twitch response (HTR): somewhat reduced
